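Each compound was tested at five concentrations against cells in 96-well plates for 48 hours. The concentration for 50% growth inhibition is given as GI50. At the TGI there is no net growth.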
What was measured:
Assay in all cases: NCI tumour cell line growth inhibition, 48 h
786-0 renal = test system: 786-0 renal
A498 renal = test system: A498 renal
A549 NSCLC = test system: A549 NSCLC
ACHN renal = test system: ACHN renal
BT-549 breast = test system: BT-549 breast
CAKI-1 renal = test system: CAKI-1 renal
CCRF-CEM leukemia = test system: CCRF-CEM leukemia
COLO 205 colon = test system: COLO 205 colon
DU-145 prostate = test system: DU-145 prostate
EKVX NSCLC = test system: EKVX NSCLC
HCC-2998 colon = test system: HCC-2998 colon
HCT-116 colon = test system: HCT-116 colon
HCT-15 colon = test system: HCT-15 colon
HL-60(TB) leukemia = test system: HL-60(TB) leukemia
HOP-62 NSCLC = test system: HOP-62 NSCLC
HOP-92 NSCLC = test system: HOP-92 NSCLC
HS 578T breast = test system: HS 578T breast
HT29 colon = test system: HT29 colon
IGROV1 ovarian = test system: IGROV1 ovarian
K-562 leukemia = test system: K-562 leukemia
KM12 colon = test system: KM12 colon
LOX IMVI melanoma = test system: LOX IMVI melanoma
M14 melanoma = test system: M14 melanoma
MALME-3M melanoma = test system: MALME-3M melanoma
MCF7 breast = test system: MCF7 breast
MDA-MB-231 breast = test system: MDA-MB-231 breast
MDA-MB-435 = test system: MDA-MB-435
MDA-MB-468 breast = test system: MDA-MB-468 breast
MOLT-4 leukemia = test system: MOLT-4 leukemia
NCI-H226 lung = test system: NCI-H226 lung
NCI-H23 lung = test system: NCI-H23 lung
NCI-H460 lung = test system: NCI-H460 lung
NCI-H522 lung = test system: NCI-H522 lung
NCI/ADR-RES ovarian = test system: NCI/ADR-RES ovarian
OVCAR-3 ovarian = test system: OVCAR-3 ovarian
OVCAR-4 ovarian = test system: OVCAR-4 ovarian
OVCAR-5 ovarian = test system: OVCAR-5 ovarian
OVCAR-8 ovarian = test system: OVCAR-8 ovarian
PC-3 prostate = test system: PC-3 prostate
RPMI-8226 leukemia = test system: RPMI-8226 leukemia
RXF 393 renal = test system: RXF 393 renal
SF-268 CNS = test system: SF-268 CNS
SF-295 CNS = test system: SF-295 CNS
SF-539 CNS = test system: SF-539 CNS
SK-MEL-2 melanoma = test system: SK-MEL-2 melanoma
SK-MEL-28 melanoma = test system: SK-MEL-28 melanoma
SK-MEL-5 melanoma = test system: SK-MEL-5 melanoma
SK-OV-3 ovarian = test system: SK-OV-3 ovarian
SN12C renal = test system: SN12C renal
SNB-19 CNS = test system: SNB-19 CNS
SNB-75 CNS = test system: SNB-75 CNS
SR leukemia = test system: SR leukemia
SW-620 colon = test system: SW-620 colon
T-47D breast = test system: T-47D breast
TK-10 renal = test system: TK-10 renal
U251 CNS = test system: U251 CNS
UACC-257 melanoma = test system: UACC-257 melanoma
UACC-62 melanoma = test system: UACC-62 melanoma
UO-31 renal = test system: UO-31 renal

OCCCNc1oc(-c2ccccc2)nc1[P+](c1ccccc1)(c1ccccc1)c1ccccc1 gave a GI50 (786-0 renal) of 5.72 µM, a TGI (786-0 renal) of 20 µM and a GI50 (A498 renal) of 10.4 µM. The TGI (A498 renal) was 23 µM, the GI50 (A549 NSCLC) was 5.68 µM and the TGI (A549 NSCLC) was 20.3 µM. For the same compound, the GI50 (ACHN renal) was 10.2 µM, the TGI (ACHN renal) was 24.8 µM and the GI50 (BT-549 breast) was 1.87 µM. The TGI (BT-549 breast) was 6.03 µM, the GI50 (CAKI-1 renal) was 4.28 µM and the TGI (CAKI-1 renal) was 21.7 µM. The GI50 (CCRF-CEM leukemia) was 2.46 µM, the TGI (CCRF-CEM leukemia) was 13.5 µM and the GI50 (COLO 205 colon) was 1.26 µM. It also gave a TGI (COLO 205 colon) of 4.41 µM, a GI50 (DU-145 prostate) of 3.86 µM and a TGI (DU-145 prostate) of 16.4 µM. For the same compound, the GI50 (EKVX NSCLC) was 2.81 µM, the TGI (EKVX NSCLC) was 13.6 µM and the GI50 (HCC-2998 colon) was 2.95 µM. It also gave a TGI (HCC-2998 colon) of 12.8 µM, a GI50 (HCT-116 colon) of 2.52 µM and a TGI (HCT-116 colon) of 15.9 µM. For the same compound, the GI50 (HCT-15 colon) was 13.7 µM, the TGI (HCT-15 colon) was 28.1 µM and the GI50 (HL-60(TB) leukemia) was 0.586 µM. For the same compound, the TGI (HL-60(TB) leukemia) was 2.9 µM, the GI50 (HOP-62 NSCLC) was 3.25 µM and the TGI (HOP-62 NSCLC) was 14.5 µM. For the same compound, the GI50 (HOP-92 NSCLC) was 1.24 µM, the TGI (HOP-92 NSCLC) was 5.68 µM and the GI50 (HS 578T breast) was 2.25 µM. It also gave a TGI (HS 578T breast) of 8.21 µM, a GI50 (HT29 colon) of 2.45 µM and a TGI (HT29 colon) of 13.3 µM. It also gave a GI50 (IGROV1 ovarian) of 2.14 µM, a TGI (IGROV1 ovarian) of 7.01 µM and a GI50 (K-562 leukemia) of 1.46 µM. For the same compound, the TGI (K-562 leukemia) was 11.7 µM, the GI50 (KM12 colon) was 2.13 µM and the TGI (KM12 colon) was 7.15 µM. The GI50 (LOX IMVI melanoma) was 3.12 µM, the TGI (LOX IMVI melanoma) was 12.2 µM and the GI50 (M14 melanoma) was 3.13 µM. It also gave a TGI (M14 melanoma) of 17.7 µM, a GI50 (MALME-3M melanoma) of 1.57 µM and a TGI (MALME-3M melanoma) of 5.38 µM. For the same compound, the GI50 (MCF7 breast) was 1.95 µM, the TGI (MCF7 breast) was 8.73 µM and the GI50 (MDA-MB-231 breast) was 1.72 µM. The TGI (MDA-MB-231 breast) was 4.84 µM, the GI50 (MDA-MB-435) was 2.26 µM and the TGI (MDA-MB-435) was 10 µM. For the same compound, the GI50 (MDA-MB-468 breast) was 0.337 µM, the TGI (MDA-MB-468 breast) was 1.97 µM and the GI50 (MOLT-4 leukemia) was 3.01 µM. For the same compound, the TGI (MOLT-4 leukemia) was 12.1 µM, the GI50 (NCI-H226 lung) was 2.44 µM and the TGI (NCI-H226 lung) was 9.8 µM. For the same compound, the GI50 (NCI-H23 lung) was 3.02 µM, the TGI (NCI-H23 lung) was 12.5 µM and the GI50 (NCI-H460 lung) was 2.61 µM. It also gave a TGI (NCI-H460 lung) of 11.3 µM, a GI50 (NCI-H522 lung) of 1.76 µM and a TGI (NCI-H522 lung) of 7.82 µM. For the same compound, the GI50 (NCI/ADR-RES ovarian) was > 100 µM, the TGI (NCI/ADR-RES ovarian) was > 100 µM and the GI50 (OVCAR-3 ovarian) was 1.44 µM. For the same compound, the TGI (OVCAR-3 ovarian) was 8.15 µM, the GI50 (OVCAR-4 ovarian) was 2.37 µM and the TGI (OVCAR-4 ovarian) was 15.7 µM. It also gave a GI50 (OVCAR-5 ovarian) of 3.42 µM, a TGI (OVCAR-5 ovarian) of 15.5 µM and a GI50 (OVCAR-8 ovarian) of 2.84 µM. The TGI (OVCAR-8 ovarian) was 10.7 µM, the GI50 (PC-3 prostate) was 1.6 µM and the TGI (PC-3 prostate) was 9 µM. It also gave a GI50 (RPMI-8226 leukemia) of 0.41 µM, a TGI (RPMI-8226 leukemia) of 10.2 µM and a GI50 (RXF 393 renal) of 1.23 µM. The TGI (RXF 393 renal) was 5.79 µM, the GI50 (SF-268 CNS) was 2.76 µM and the TGI (SF-268 CNS) was 11.8 µM. It also gave a GI50 (SF-295 CNS) of 3.02 µM, a TGI (SF-295 CNS) of 10.5 µM and a GI50 (SF-539 CNS) of 3.86 µM. For the same compound, the TGI (SF-539 CNS) was 14.4 µM, the GI50 (SK-MEL-2 melanoma) was 2.49 µM and the TGI (SK-MEL-2 melanoma) was 6.46 µM. It also gave a GI50 (SK-MEL-28 melanoma) of 2.09 µM, a TGI (SK-MEL-28 melanoma) of 11 µM and a GI50 (SK-MEL-5 melanoma) of 1.15 µM. For the same compound, the TGI (SK-MEL-5 melanoma) was 2.38 µM, the GI50 (SK-OV-3 ovarian) was 2.34 µM and the TGI (SK-OV-3 ovarian) was 8.1 µM. The GI50 (SN12C renal) was 2.61 µM, the TGI (SN12C renal) was 7.59 µM and the GI50 (SNB-19 CNS) was 2.15 µM. The TGI (SNB-19 CNS) was 7.25 µM, the GI50 (SNB-75 CNS) was 1.3 µM and the TGI (SNB-75 CNS) was 5.38 µM. The GI50 (SR leukemia) was 3.43 µM, the TGI (SR leukemia) was 16.1 µM and the GI50 (SW-620 colon) was 3.29 µM. It also gave a TGI (SW-620 colon) of 15.2 µM, a GI50 (T-47D breast) of 1.26 µM and a TGI (T-47D breast) of 6.72 µM. The GI50 (TK-10 renal) was 3.62 µM, the TGI (TK-10 renal) was 16.3 µM and the GI50 (U251 CNS) was 2.67 µM. It also gave a TGI (U251 CNS) of 11.7 µM, a GI50 (UACC-257 melanoma) of 1.98 µM and a TGI (UACC-257 melanoma) of 6.1 µM. It also gave a GI50 (UACC-62 melanoma) of 1.38 µM, a TGI (UACC-62 melanoma) of 3.85 µM and a GI50 (UO-31 renal) of 15.7 µM. The TGI (UO-31 renal) was 33.2 µM.

Reference: PubChem BioAssay (NCI)
